Assay results: patent US12258338B2, “Modulators of the integrated stress response pathway” (EVOTEC INTERNATIONAL GMBH, priority 2019, dated 2025)

Tests used:
ATF4 = assay: HEK-ATF4 High Content Imaging assay (prevention of Tunicamycin induced ISR; ATF4 signal ratio between nucleus and cytoplasm); format: cell-based; conditions: Homo sapiens; Wild-type HEK293 cells, Tunicamycin induced ISR, 6 h; read-out: IIEK-ATF4 Activity
Protocol: HEK-ATF4 High Content Imaging Assay
Example compounds were tested in the HEK-ATF4 High Content Imaging assay to assess their pharmacological potency to prevent Tunicamycin induced ISR. Wild-type HEK293 cells were plated in 384-well imaging assay plates at a density of 12,000 cells per well in growth medium (containing DMEM/F12, 10% FBS, 2 mM L-Glutamine, 100 U/mL Penicillin-100 μg/mL Streptomycin) and incubated at 37° C., 5% CO2. 24 h later, the medium was changed to 50 μL assay medium per well (DMEM/F12, 0.3% FBS, 2 mM L-Glutamine, 100 U/mL Penicillin-100 μg/mL Streptomycin). Example compounds were serially diluted in DMSO, spotted into intermediate plates and prediluted with assay medium containing 3.3 μM Tunicamycin to give an 11-fold excess of final assay concentration. In addition to the example compound testing area, the plates also contained multiples of control wells for assay normalization purposes, wells containing Tunicamycin but no example compounds (High control), as well as wells containing neither example compound nor Tunicamycin (Low control). The assay was started by transferring 5 μL from the intermediate plate into the assay plates, followed by incubation for 6 h at 37° C., 5% CO2. Subsequently, cells were fixed (4% PFA in PBS, 20 min at r.t.) and submitted to indirect ATF4 immunofluorescence staining (primary antibody rabbit anti ATF4, clone D4B8, Cell Signaling Technologies; secondary antibody Alexa Fluor 488 goat anti-rabbit IgG (H+L), Thermofisher Scientific). Nuclei were stained using Hoechst dye (Thermofisher Scientific), and plates were imaged on an Opera Phenix High Content imaging platform equipped with 405 nm and 488 nm excitation. Finally, images were analyzed using script based algorithms. The main readout HEK-ATF4 monitored the ATF4 signal ratio between nucleus and cytoplasm. Tunicamycin induced an increase in the overall ATF4 ratio signal, which was prevented by ISR modulating example compounds. In addition, HEK-CellCount readout was derived from counting the number of stained nuclei corresponding to healthy cells. This readout served as an internal toxicity control.

[1] = target: T1, human ERG potassium channel (hERG) (Homo sapiens, UniProt Q12809); assay: hERG channel tail current recording using in vitro Rapid ICE (automated patch-clamp, QPatch HTX); format: cell-based; conditions: Table 26
T1 construct: expressed in transfected cells; host or cells: HEK293, stably transfected, tetracycline-inducible promoter
T1 sequence (Q12809 whole entry): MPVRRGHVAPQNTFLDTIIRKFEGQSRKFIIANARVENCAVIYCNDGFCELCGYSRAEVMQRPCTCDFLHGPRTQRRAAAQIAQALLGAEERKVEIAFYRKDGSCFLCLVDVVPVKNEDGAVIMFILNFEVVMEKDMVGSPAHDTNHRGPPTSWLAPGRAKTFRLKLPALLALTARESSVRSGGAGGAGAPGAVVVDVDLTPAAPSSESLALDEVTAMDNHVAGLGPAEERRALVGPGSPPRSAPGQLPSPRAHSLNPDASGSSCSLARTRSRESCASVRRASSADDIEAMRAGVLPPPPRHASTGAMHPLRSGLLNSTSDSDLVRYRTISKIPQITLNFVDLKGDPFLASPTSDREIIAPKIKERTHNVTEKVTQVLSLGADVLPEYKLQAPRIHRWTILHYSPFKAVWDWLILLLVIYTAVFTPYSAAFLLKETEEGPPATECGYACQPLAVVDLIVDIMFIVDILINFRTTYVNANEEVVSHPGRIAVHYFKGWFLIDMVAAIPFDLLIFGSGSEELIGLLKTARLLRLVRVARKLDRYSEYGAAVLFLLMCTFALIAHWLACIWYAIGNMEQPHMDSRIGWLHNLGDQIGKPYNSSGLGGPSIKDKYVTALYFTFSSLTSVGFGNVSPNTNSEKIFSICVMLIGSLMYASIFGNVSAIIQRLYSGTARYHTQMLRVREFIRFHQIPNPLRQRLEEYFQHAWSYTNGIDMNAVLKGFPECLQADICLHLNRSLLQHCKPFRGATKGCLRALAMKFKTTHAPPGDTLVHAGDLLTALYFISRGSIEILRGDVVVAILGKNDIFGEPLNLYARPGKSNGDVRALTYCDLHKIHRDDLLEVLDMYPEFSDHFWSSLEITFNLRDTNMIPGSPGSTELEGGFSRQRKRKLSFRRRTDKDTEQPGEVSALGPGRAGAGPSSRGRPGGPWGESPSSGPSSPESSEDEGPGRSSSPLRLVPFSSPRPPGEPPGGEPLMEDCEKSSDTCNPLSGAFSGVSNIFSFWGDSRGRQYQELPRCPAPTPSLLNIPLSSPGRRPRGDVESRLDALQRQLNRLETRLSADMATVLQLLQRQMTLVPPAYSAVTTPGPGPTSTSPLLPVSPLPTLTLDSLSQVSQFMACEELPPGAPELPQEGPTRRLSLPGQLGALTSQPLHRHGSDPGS
Protocol: Protocol—Measure of the Effect on hERG Channel by Tail Current Recording Using In Vitro Rapid ICE
The potency of the example compounds in inhibiting human ERG potassium channel (hERG) tail current was assessed in a recombinant HEK293 cell line stably transfected with hERG cDNA under an inducible promoter, using Rapid ICE (rapid ion channel electrophysiology) assay. Rapid ICE is an automated patch-clamp assay utilizing the QPatch HTX system (Sophion Bioscience A/S). Briefly, inducible HEK hERG cells were cultivated in minimum essential medium supplemented with 10% FBS, 1% non-essential amino acids, 1% sodium pyruvate, 2 mM 1-glutamine, 15 μg/mL blasticidin, and 100 μg/mL hygromycin. hERG channel expression induction was obtained by adding 10 μg/mL tetracycline for 24, 48, or 72 h before recordings.
On the day of the experiment, cells were detached with TrypLE and prepared to be loaded on the instrument. Cells were resuspended in 7 mL of Serum-Free Media containing 25 mM Hepes and soybean trypsin inhibitor and immediately placed in the cell storage tank of the machine. The composition of the extracellular buffer was (mM): NaCl 137, KCl 4, CaCl2 1.8, MgCl2 1.0, d-glucose 10, N-2-hydroxyethylpiperazine-N′-2-ethanesulfonic acid (HEPES) 10, pH 7.4 with 1 M NaOH. The composition of the intracellular solution was (mM): KCl 130, MgCl2 1.0, ethylene glycol-bis(β-aminoethyl ether)-N,N,N′,N′-tetraacetic acid (EGTA) 5, MgATP 5, HEPES 10, pH 7.2 with 1 M KOH. The voltage protocol included the following steps: step from −80 to −50 mV for 200 ms, +20 mV for 4.8 s, step to −50 mV for 5 s, then step to the holding potential of −80 mV. Compounds were dissolved in DMSO and diluted in extracellular buffer to achieve final test concentrations (0.3, 3, and 30 μM) in 0.3% DMSO. The voltage protocol was run and recorded continuously during the experiment. The vehicle, corresponding to 0.3% DMSO in extracellular buffer was then applied for 3 min, followed by the test substance in triplicate. The standard combined exposure time was 5 min. The average of tail current amplitude values recorded from four sequential voltage pulses was used to calculate for each cell the effect of the test substance by calculating the residual current (% control) compared with vehicle pretreatment. Data were reported as % inhibition for each concentration tested, and IC50 values were estimated using QPatch software. At least two cells were tested, and even more if results diverged.

Row | Compound | IC50 (ATF4) [nM] | IC50 [1] [nM]
1 | O=C(COc1ccc(Cl)c(F)c1)N[C@@H]1CC[C@@H](c2nnc(-c3ccc(Cl)cc3)o2)NC1 [Example 35, 2-(4-chloro-3-fluorophenoxy)-N-[(3R,6S)-6-[5-(4-chlorophenyl)-1,3,4-oxadiazol-2-yl]piperidin-3-yl]acetamide] | 1 to 500 | 1 to 1000
2 | O=C(COc1ccc(Cl)c(F)c1)N[C@H]1CC[C@H](c2nnc(-c3ccc(Cl)cc3)o2)NC1 [Example 40, 2-(4-chloro-3-fluorophenoxy)-N-[(3S,6R)-6-[5-(4-chlorophenyl)-1,3,4-oxadiazol-2-yl]piperidin-3-yl]acetamide] | 1 to 500 | 1 to 1000
3 | O=C(COc1ccc(Cl)c(F)c1)N[C@@H]1CC[C@@H](c2nnc(OCCC(F)(F)F)o2)NC1 [Example 42, 2-(4-chloro-3-fluorophenoxy)-N-[(3R,6S)-6-[5-(3,3,3-trifluoropropoxy)-1,3,4-oxadiazol-2-yl]piperidin-3-yl]acetamide] | 1 to 500 | 1000 to 5000
4 | O=C(COc1ccc(Cl)c(F)c1)N[C@@H]1CC[C@@H](c2nnc(N3CC(OC(F)(F)F)C3)o2)NC1 [Example 43] | 1 to 500 | > 5000
5 | CN1C[C@H](NC(=O)COc2ccc(Cl)c(F)c2)CC[C@H]1c1nnc(-c2ccc(Cl)cc2)o1 [Example 44, 2-(4-chloro-3-fluorophenoxy)-N-[(3R,6S)-6-[5-(4-chlorophenyl)-1,3,4-oxadiazol-2-yl]-1-methylpiperidin-3-yl]acetamide] | 1 to 500 | 1 to 1000
6 | CN1C[C@@H](NC(=O)COc2ccc(Cl)c(F)c2)CC[C@@H]1c1nnc(-c2ccc(Cl)cc2)o1 [Example 45, 2-(4-chloro-3-fluorophenoxy)-N-[(3S,6R)-6-[5-(4-chlorophenyl)-1,3,4-oxadiazol-2-yl]-1-methylpiperidin-3-yl]acetamide] | 1 to 500 | 1 to 1000
7 | CCN1C[C@@H](NC(=O)COc2ccc(Cl)c(F)c2)CC[C@@H]1c1nnc(-c2ccc(Cl)cc2)o1 [Example 46, 2-(4-chloro-3-fluorophenoxy)-N-[(3S,6R)-6-[5-(4-chlorophenyl)-1,3,4-oxadiazol-2-yl]-1-ethylpiperidin-3-yl]acetamide] | 1 to 500 | 1 to 1000
8 | CCN1C[C@H](NC(=O)COc2ccc(Cl)c(F)c2)CC[C@H]1c1nnc(-c2ccc(Cl)cc2)o1 [Example 47, 2-(4-chloro-3-fluorophenoxy)-N-[(3R,6S)-6-[5-(4-chlorophenyl)-1,3,4-oxadiazol-2-yl]-1-ethylpiperidin-3-yl]acetamide] | 1 to 500 | 1 to 1000
9 | O=C(COc1ccc(Cl)c(F)c1)N[C@H]1CC[C@H](c2nnc(-c3ccc(Cl)cn3)o2)NC1 [Example 53, 2-(4-chloro-3-fluorophenoxy)-N-[(3S,6R)-6-[5-(5-chloropyridin-2-yl)-1,3,4-oxadiazol-2-yl]piperidin-3-yl]acetamide] | 1 to 500 | 1000 to 5000
10 | O=C(COc1ccc(Cl)c(F)c1)N[C@H]1CC[C@H](c2nnc(-c3ccc(Cl)c(F)c3)o2)NC1 [Example 54, 2-(4-chloro-3-fluorophenoxy)-N-[(3S,6R)-6-[5-(4-chloro-3-fluorophenyl)-1,3,4-oxadiazol-2-yl]piperidin-3-yl]acetamide] | 1 to 500 | 1 to 1000
11 | O=C(COc1ccc(Cl)c(F)c1)N[C@H]1CC[C@H](c2nnc(CCCOC(F)(F)F)o2)NC1 [Example 55, 2-(4-chloro-3-fluorophenoxy)-N-[(3S,6R)-6-{5-[3-(trifluoromethoxy)propyl]-1,3,4-oxadiazol-2-yl}piperidin-3-yl]acetamide] | 1 to 500 | > 5000
12 | O=C(COc1ccc(Cl)c(F)c1)N[C@H]1CC[C@H](c2nnc(C3CC(OC4CC4)C3)o2)NC1 (stereo partly drawn) [Example 59, 2-(4-chloro-3-fluorophenoxy)-N-[(3S,6R)-6-[5-(3-cyclopropoxycyclobutyl)-1,3,4-oxadiazol-2-yl]piperidin-3-yl]acetamide] | 500 to 2000 | > 5000
13 | CC(CC(F)(F)F)Oc1nnc([C@H]2CC[C@H](NC(=O)COc3ccc(Cl)c(F)c3)CN2)o1 (stereo partly drawn) [Example 64, 2-(4-chloro-3-fluorophenoxy)-N-[(3S,6R)-6-{5-[(4,4,4-trifluorobutan-2-yl)oxy]-1,3,4-oxadiazol-2-yl}piperidin-3-yl]acetamide] | 2000 to 15000 | > 5000
14 | CC(F)(F)CCOc1nnc([C@H]2CC[C@H](NC(=O)COc3ccc(Cl)c(F)c3)CN2)o1 [Example 65, 2-(4-chloro-3-fluorophenoxy)-N-[(3S,6R)-6-[5-(3,3-difluorobutoxy)-1,3,4-oxadiazol-2-yl]piperidin-3-yl]acetamide] | 500 to 2000 | 1000 to 5000
15 | O=C(COc1ccc(Cl)c(F)c1)N[C@H]1CC[C@H](c2nnc(OCC3CC3(F)F)o2)NC1 (stereo partly drawn) [Example 66, 2-(4-chloro-3-fluorophenoxy)-N-[(3S,6R)-6-{5-[(2,2-difluorocyclopropyl)methoxy]-1,3,4-oxadiazol-2-yl}piperidin-3-yl]acetamide] | 500 to 2000 | 1000 to 5000
16 | CCCCOc1nnc([C@H]2CC[C@H](NC(=O)COc3ccc(Cl)c(F)c3)CN2)o1 [Example 67, N-[(3S,6R)-6-(5-butoxy-1,3,4-oxadiazol-2-yl)piperidin-3-yl]-2-(4-chloro-3-fluorophenoxy)acetamide] | 1 to 500 | 1000 to 5000
17 | O=C(COc1ccc(Cl)c(F)c1)N[C@H]1CC[C@H](c2nnc(OCCC3CC3)o2)NC1 [Example 69, 2-(4-chloro-3-fluorophenoxy)-N-[(3S,6R)-6-[5-(2-cyclopropylethoxy)-1,3,4-oxadiazol-2-yl]piperidin-3-yl]acetamide] | 1 to 500 | 1 to 1000
18 | CC(C)CCOc1nnc([C@H]2CC[C@H](NC(=O)COc3ccc(Cl)c(F)c3)CN2)o1 [Example 70, 2-(4-chloro-3-fluorophenoxy)-N-[(3S,6R)-6-[5-(3-methylbutoxy)-1,3,4-oxadiazol-2-yl]piperidin-3-yl]acetamide] | 1 to 500 | 1000 to 5000
19 | O=C(COc1ccc(Cl)c(F)c1)N[C@H]1CC[C@H](c2nnc(OCC3CCC3(F)F)o2)NC1 (stereo partly drawn) [Example 71, 2-(4-chloro-3-fluorophenoxy)-N-[(3S,6R)-6-{5-[(2,2-difluorocyclobutyl)methoxy]-1,3,4-oxadiazol-2-yl}piperidin-3-yl]acetamide] | 500 to 2000 | 1000 to 5000
20 | O=C(COc1ccc(Cl)c(F)c1)N[C@H]1CC[C@H](c2nnc(OC3CC(F)(F)C3)o2)NC1 [Example 72, 2-(4-chloro-3-fluorophenoxy)-N-[(3S,6R)-6-[5-(3,3-difluorocyclobutoxy)-1,3,4-oxadiazol-2-yl]piperidin-3-yl]acetamide] | 2000 to 15000 | 1000 to 5000
21 | CC(C)(C)OC(=O)N1C[C@@H](NC(=O)COc2ccc(Cl)c(F)c2)CC[C@@H]1c1nnc(OCCOC(F)(F)F)o1 [Example 76, tert-butyl (2R,5S)-5-[2-(4-chloro-3-fluorophenoxy)acetamido]-2-{5-[2-(trifluoromethoxy)ethoxy]-1,3,4-oxadiazol-2-yl}piperidine-1-carboxylate] | 500 to 2000 | > 5000
